Measured values published in the NIST ThermoML archive (doi:10.1021/je800150h).
± gives the expanded uncertainty stated by the source.

Conditions: 101 kPa, Liquid

O [water]
Conditions | mass density [kg/m3] | viscosity [mPa·s]
278.1 K | 999.9 ± 4.4 | 1.519 ± 0.072
283.1 K | 999.7 ± 4.2 | 1.308 ± 0.063
288.15 K | – | 1.14 ± 0.056
293.15 K | – | 1.005 ± 0.05
298.15 K | – | 0.894 ± 0.045
303.15 K | – | 0.799 ± 0.041
308.15 K | 994.1 ± 4.3 | 0.723 ± 0.038
313.15 K | – | 0.655 ± 0.035
318.15 K | – | 0.599 ± 0.032
323.15 K | – | 0.548 ± 0.03

CCO [ethanol]
Conditions | mass density [kg/m3] | viscosity [mPa·s]
268.1 K | 811.1 ± 3.8 | 1.975 ± 0.093
273.1 K | 806.8 ± 3.6 | 1.775 ± 0.084
278.1 K | 802.6 ± 3.4 | 1.629 ± 0.077
283.1 K | 798.4 ± 3.1 | 1.468 ± 0.07
288.15 K | 794.2 ± 2.9 | 1.341 ± 0.065
293.15 K | 789.9 ± 2.7 | 1.207 ± 0.059
298.15 K | 785.7 ± 2.9 | 1.105 ± 0.054
303.15 K | 781.4 ± 3.1 | 1.01 ± 0.05
308.15 K | 777.1 ± 3.2 | 0.92 ± 0.046
313.15 K | 772.8 ± 3.4 | 0.84 ± 0.043
318.15 K | 767.9 ± 3.6 | 0.772 ± 0.04
323.15 K | 763.4 ± 3.7 | 0.713 ± 0.037
